# Assay results taken from patent US10047096B2, “Substituted pyridobenzodiazepinone-derivatives and use thereof” (Bayer Pharma Aktiengesellschaft, priority 2014, dated 2018).
# Legend:
# human PDGFRβ = human PDGFRβ (Homo sapiens (Human), UniProt P09619); assay: PDGFRβ kinase assay (PDGFRβ-HTRF); type: biochemical; conditions: 10 μM ATP; some mean values from multiple determinations
# How it was run: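 GST-fused human PDGFRβ fragment (R561-L1106) from Sf9 cells was preincubated 15 min with compound in 50 mM HEPES pH 7.5, 10 mM MgCl2, 2.5 mM DTT, 0.01% Triton X-100; substrate was biotinylated poly-Glu,Tyr (4:1).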
# [1] = target: pPDGFRβ in normal human dermal fibroblasts (NHDF) (Homo sapiens (Human), UniProt P09619); assay: Cellular pPDGFRβ inhibition assay; type: cell-based; conditions: NHDF stimulated with 50 ng/ml PDGF-BB, 1 h
# pPDGFRβ in normal human dermal fibroblasts (NHDF), sequence (P09619 33-1106): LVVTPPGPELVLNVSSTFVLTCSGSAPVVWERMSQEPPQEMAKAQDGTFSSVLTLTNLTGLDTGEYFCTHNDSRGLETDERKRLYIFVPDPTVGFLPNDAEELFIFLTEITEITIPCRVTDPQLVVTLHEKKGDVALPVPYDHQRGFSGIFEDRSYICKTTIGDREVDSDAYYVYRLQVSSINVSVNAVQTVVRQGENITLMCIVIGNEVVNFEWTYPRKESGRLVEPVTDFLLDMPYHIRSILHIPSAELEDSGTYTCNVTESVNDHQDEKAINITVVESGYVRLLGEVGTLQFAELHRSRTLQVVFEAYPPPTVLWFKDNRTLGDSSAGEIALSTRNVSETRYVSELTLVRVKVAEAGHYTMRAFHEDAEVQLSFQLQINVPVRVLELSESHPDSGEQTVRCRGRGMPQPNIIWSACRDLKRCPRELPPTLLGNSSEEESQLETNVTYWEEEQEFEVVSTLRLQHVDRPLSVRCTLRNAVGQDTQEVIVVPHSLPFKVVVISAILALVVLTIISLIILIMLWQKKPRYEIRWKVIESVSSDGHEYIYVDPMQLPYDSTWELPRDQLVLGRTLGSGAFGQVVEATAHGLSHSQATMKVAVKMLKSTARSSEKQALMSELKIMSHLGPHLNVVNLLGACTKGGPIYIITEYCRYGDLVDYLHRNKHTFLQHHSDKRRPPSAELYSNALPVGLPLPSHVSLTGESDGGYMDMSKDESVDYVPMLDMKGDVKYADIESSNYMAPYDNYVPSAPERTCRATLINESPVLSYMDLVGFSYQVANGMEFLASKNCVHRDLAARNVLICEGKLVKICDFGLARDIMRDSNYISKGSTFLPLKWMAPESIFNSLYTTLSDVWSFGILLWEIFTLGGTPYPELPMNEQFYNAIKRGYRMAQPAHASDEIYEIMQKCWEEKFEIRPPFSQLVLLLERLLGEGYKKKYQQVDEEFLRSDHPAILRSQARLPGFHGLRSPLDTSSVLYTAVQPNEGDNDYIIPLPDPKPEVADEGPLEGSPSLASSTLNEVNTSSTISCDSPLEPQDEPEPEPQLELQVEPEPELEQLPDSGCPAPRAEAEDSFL
# Description: Thereafter, 50 ng/ml recombinant human PDGF-BB (R&D Systems, Cat. No. 220-BB-050) and a dilution series of the test substances to be examined in DMSO were added to the cells. The total volume per well was 100 μl. After incubation under the abovementioned conditions for one hour, the Opti-MEM® I Reduced Serum Medium was tapped out and discarded. Subsequently, the lysis buffer [Phospho PDGFRβ (Tyr751) Assay Whole Cell Lysate Kit, MSD, Cat. No. K150DVD-2] was made up according to the manufacturer's instructions and 70 μl of this mixture per well were added. The lysed cell samples were either stored at −20° C. or analysed immediately after the lysis in a Meso Scale SECTOR® Imager 2400 according to the abovementioned manufacturer's instructions. The measurement data were presented as percentage PDGFRβ stimulation compared to PDGF-BB-stimulated but substance-untreated cells. The IC50 values were calculated by employing the nonlinear regression (curve fit) function of GraphPad Prism 6 (La Jolla, Calif., USA).
# human PDGFRβ, sequence (P09619 561-1106): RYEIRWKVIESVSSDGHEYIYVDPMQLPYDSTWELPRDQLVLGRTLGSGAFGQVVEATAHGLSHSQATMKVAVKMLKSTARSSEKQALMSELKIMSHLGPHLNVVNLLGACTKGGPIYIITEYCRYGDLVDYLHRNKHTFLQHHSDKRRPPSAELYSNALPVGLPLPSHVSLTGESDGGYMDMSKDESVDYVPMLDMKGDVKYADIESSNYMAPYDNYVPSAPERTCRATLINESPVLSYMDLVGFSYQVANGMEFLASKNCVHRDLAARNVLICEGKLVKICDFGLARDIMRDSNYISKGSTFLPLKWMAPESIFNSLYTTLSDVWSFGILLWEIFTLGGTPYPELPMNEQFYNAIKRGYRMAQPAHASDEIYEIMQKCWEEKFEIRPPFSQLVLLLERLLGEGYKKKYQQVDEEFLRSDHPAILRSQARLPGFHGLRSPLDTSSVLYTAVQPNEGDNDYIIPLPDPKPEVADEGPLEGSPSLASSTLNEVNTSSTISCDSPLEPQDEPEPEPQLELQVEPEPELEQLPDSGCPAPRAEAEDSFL
IC50 (human PDGFRβ) [nM],IC50 [1] [nM],Structure (SMILES)
1.94,,"Cc1cc(F)c(Nc2ccnc3c2C(=O)Nc2cc(CN4CCC(N(C)C)CC4)ccc2N3)cc1O [Example 211, 8-{[4-(Dimethylamino)piperidin-1-yl]methyl}-4-[(2-fluoro-5-hydroxy-4-methylphenyl)amino]-6,11-dihydro-5H-pyrido[2,3-b][1,5]benzodiazepin-5-one]"
0.829,,"Cc1cc(F)c(Nc2ccnc3c2C(=O)Nc2cc(CN4CCC[C@@H](N)C4)ccc2N3)cc1O [Example 212, 8-{[(3R)-3-Aminopiperidin-1-yl]methyl}-4-[(2-fluoro-5-hydroxy-4-methylphenyl)amino]-6,11-dihydro-5H-pyrido[2,3-b][1,5]benzodiazepin-5-one]"
2.06,,"Cc1cc(F)c(Nc2ccnc3c2C(=O)Nc2cc(CN4CC[C@H](N)C4)ccc2N3)cc1O [Example 215, 8-{[(3S)-3-Aminopyrrolidin-1-yl]methyl}-4-[(2-fluoro-5-hydroxy-4-methylphenyl)amino]-6,11-dihydro-5H-pyrido[2,3-b][1,5]benzodiazepin-5-one]"
1.12,,"Cc1cc(F)c(Nc2ccnc3c2C(=O)Nc2cc(CN4CC[C@@H](N)C4)ccc2N3)cc1O [Example 216, 8-{[(3R)-3-Aminopyrrolidin-1-yl]methyl}-4-[(2-fluoro-5-hydroxy-4-methylphenyl)amino]-6,11-dihydro-5H-pyrido[2,3-b][1,5]benzodiazepin-5-one]"
3.39,,"Cc1cc(F)c(Nc2ccnc3c2C(=O)Nc2cc(CN4CC[C@@H](N(C)C)C4)ccc2N3)cc1O [Example 217, 8-{[(3R)-3-(Dimethylamino)pyrrolidin-1-yl]methyl}-4-[(2-fluoro-5-hydroxy-4-methylphenyl)amino]-6,11-dihydro-5H-pyrido[2,3-b][1,5]benzodiazepin-5-one]"
1.06,,"Cc1cc(F)c(Nc2ccnc3c2C(=O)Nc2cc(CN4CCC(N)CC4)ccc2N3)cc1O [Example 218, 8-[(4-Aminopiperidin-1-yl)methyl]-4-[(2-fluoro-5-hydroxy-4-methylphenyl)amino]-6,11-dihydro-5H-pyrido[2,3-b][1,5]benzodiazepin-5-one]"
1.48,,"Cc1cc(F)c(Nc2ccnc3c2C(=O)Nc2cc(CN4CCC[C@H](N)C4)ccc2N3)cc1O [Example 219, 8-{[(3S)-3-Aminopiperidin-1-yl]methyl}-4-[(2-fluoro-5-hydroxy-4-methylphenyl)amino]-6,11-dihydro-5H-pyrido[2,3-b][1,5]benzodiazepin-5-one]"
2.15,,"Cc1cc(F)c(Nc2ccnc3c2C(=O)Nc2cc(CN4CC[C@H](N(C)C)C4)ccc2N3)cc1O [Example 220, 8-{[(3S)-3-(Dimethylamino)pyrrolidin-1-yl]methyl}-4-[(2-fluoro-5-hydroxy-4-methylphenyl)amino]-6,11-dihydro-5H-pyrido[2,3-b][1,5]benzodiazepin-5-one]"
1.74,,"Cc1cc(F)c(Nc2ccnc3c2C(=O)Nc2cc(CN(C)CCCO)ccc2N3)cc1O [Example 221, 4-[(2-Fluoro-5-hydroxy-4-methylphenyl)amino]-8-{[(3-hydroxypropyl)(methyl)amino]methyl}-6,11-dihydro-5H-pyrido[2,3-b][1,5]benzodiazepin-5-one]"
1.01,,"CCN(CCCO)Cc1ccc2c(c1)NC(=O)c1c(Nc3cc(O)c(C)cc3F)ccnc1N2 [Example 222, 8-{[Ethyl(3-hydroxypropyl)amino]methyl}-4-[(2-fluoro-5-hydroxy-4-methylphenyl)amino]-6,11-dihydro-5H-pyrido[2,3-b][1,5]benzodiazepin-5-one]"
14.1,,"Cc1ccc(O)cc1Nc1ccnc2c1C(=O)Nc1cc(C(=O)NCc3cccc(Cl)c3)ccc1N2 [Example 225, N-(3-Chlorobenzyl)-4-[(5-hydroxy-2-methylphenyl)amino]-5-oxo-6,11-dihydro-5H-pyrido[2,3-b][1,5]benzodiazepine-8-carboxamide]"
1.09,,"Cc1cc(F)c(Nc2ccnc3c2C(=O)Nc2cc(CNC4CCCC4)ccc2N3)cc1O [Example 226, 8-[(Cyclopentylamino)methyl]-4-[(2-fluoro-5-hydroxy-4-methylphenyl)amino]-6,11-dihydro-5H-pyrido[2,3-b][1,5]benzodiazepin-5-one]"

# The remaining lines, values behind:
Structure (SMILES),IC50 (human PDGFRβ) [nM],IC50 [1] [nM]
"Cc1cc(F)c(Nc2ccnc3c2C(=O)Nc2cc(CNC(CO)C(C)C)ccc2N3)cc1O (racemic) [Example 75, rac-4-[(2-Fluoro-5-hydroxy-4-methylphenyl)amino]-8-{[(1-hydroxy-3-methylbutan-2-yl)amino]methyl}-6,11-dihydro-5H-pyrido[2,3-b][1,5]benzodiazepin-5-one]",0.826,43.9
"Cc1ccc(O)cc1Nc1ccnc2c1C(=O)Nc1cc(CNC(C)C)ccc1N2 [Example 19, 4-[(5-Hydroxy-2-methylphenyl)amino]-8-[(isopropylamino)methyl]-6,11-dihydro-5H-pyrido[2,3-b][1,5]benzodiazepin-5-one]",2.02,40.9
"CCN(CC)Cc1ccc2c(c1)NC(=O)c1c(Nc3cc(O)c(C)cc3F)ccnc1N2 [Example 28, 8-[(Diethylamino)methyl]-4-[(2-fluoro-5-hydroxy-4-methylphenyl)amino]-6,11-dihydro-5H-pyrido[2,3-b][1,5]benzodiazepin-5-one]",0.953,21.6
"Cc1cc(F)c(Nc2ccnc3c2C(=O)Nc2cc(CN4CCOCC4)ccc2N3)cc1O [Example 29, 4-[(2-Fluoro-5-hydroxy-4-methylphenyl)amino]-8-(morpholin-4-ylmethyl)-6,11-dihydro-5H-pyrido[2,3-b][1,5]benzodiazepin-5-one]",2.89,35.3
"Cc1cc(F)c(Nc2ccnc3c2C(=O)Nc2cc(CNC4CC4)ccc2N3)cc1O [Example 30, 8-[(Cyclopropylamino)methyl]-4-[(2-fluoro-5-hydroxy-4-methylphenyl)amino]-6,11-dihydro-5H-pyrido[2,3-b][1,5]benzodiazepin-5-one]",2.17,111
"CCNCc1ccc2c(c1)NC(=O)c1c(Nc3cc(O)c(C)cc3F)ccnc1N2 [Example 31, 8-[(Ethylamino)methyl]-4-[(2-fluoro-5-hydroxy-4-methylphenyl)amino]-6,11-dihydro-5H-pyrido[2,3-b][1,5]benzodiazepin-5-one]",1.22,33.3
"Cc1cc(F)c(Nc2ccnc3c2C(=O)Nc2cc(CN4CCCC4)ccc2N3)cc1O [Example 32, 4-[(2-Fluoro-5-hydroxy-4-methylphenyl)amino]-8-(pyrrolidin-1-ylmethyl)-6,11-dihydro-5H-pyrido[2,3-b][1,5]benzodiazepin-5-one]",3.25,22.8
"Cc1ccc(O)cc1Nc1ccnc2c1C(=O)Nc1cc(CN3CCC(O)CC3)ccc1N2 [Example 42, 4-[(5-Hydroxy-2-methylphenyl)amino]-8-[(4-hydroxypiperidin-1-yl)methyl]-6,11-dihydro-5H-pyrido[2,3-b][1,5]benzodiazepin-5-one]",2.44,140
"CCN(C)Cc1ccc2c(c1)NC(=O)c1c(Nc3cc(O)c(C)cc3F)ccnc1N2 [Example 49, 8-{[Ethyl(methyl)amino]methyl}-4-[(2-fluoro-5-hydroxy-4-methylphenyl)amino]-6,11-dihydro-5H-pyrido[2,3-b][1,5]benzodiazepin-5-one]",0.487,41.1
"CCOCCN(CC)Cc1ccc2c(c1)NC(=O)c1c(Nc3cc(O)c(C)cc3F)ccnc1N2 [Example 50, 8-{[(2-Ethoxyethyl) (ethyl)amino]methyl}-4-[(2-fluoro-5-hydroxy-4-methylphenyl)amino]-6,11-dihydro-5H-pyrido[2,3-b][1,5]benzodiazepin-5-one]",1.13,97.4
"CCN(CCN(C)C)Cc1ccc2c(c1)NC(=O)c1c(Nc3cc(O)c(C)cc3F)ccnc1N2 [Example 199, 8-({[2-(Dimethylamino)ethyl](ethyl)amino}methyl)-4-[(2-fluoro-5-hydroxy-4-methylphenyl)amino]-6,11-dihydro-5H-pyrido[2,3-b][1,5]benzodiazepin-5-one]",1.31,
"CCN(CCN)Cc1ccc2c(c1)NC(=O)c1c(Nc3cc(O)c(C)cc3F)ccnc1N2 [Example 200, 8-{[(2-Aminoethyl)(ethyl)amino]methyl}-4-[(2-fluoro-5-hydroxy-4-methylphenyl)amino]-6,11-dihydro-5H-pyrido[2,3-b][1,5]benzodiazepin-5-one]",0.727,
"Cc1cc(F)c(Nc2ccnc3c2C(=O)Nc2cc(CN(C)C[C@@H](C)O)ccc2N3)cc1O [Example 201, 4-[(2-Fluoro-5-hydroxy-4-methylphenyl)amino]-8-({[(2R)-2-hydroxypropyl](methyl)amino}methyl)-6,11-dihydro-5H-pyrido[2,3-b][1,5]benzodiazepin-5-one]",1.35,
"Cc1cc(F)c(Nc2ccnc3c2C(=O)Nc2cc(CN(C)CCN(C)C)ccc2N3)cc1O [Example 203, 8-({[2-(Dimethylamino)ethyl](methyl)amino}methyl)-4-[(2-fluoro-5-hydroxy-4-methylphenyl)amino]-6,11-dihydro-5H-pyrido[2,3-b][1,5]benzodiazepin-5-one]",1.87,
Cc1cc(F)c(Nc2ccnc3c2C(=O)Nc2cc(CN4C[C@@H](O)[C@@H](O)C4)ccc2N3)cc1O [Example 210],1.03,
